Measured values as given in ChEMBL document CHEMBL1201862, “PubChem BioAssay data set” (2004).
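96-well plates; 48 h exposure; 5 concentrations. Endpoints by linear interpolation between flanking doses. Not reached: highest tested concentration assigned. GI50 marks 50% less growth.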 Activity calls are given as the source filed them. Rule as the data show it: active = GI50 up to about 1.1 µM and inactive = higher.

Columns and labels:
Assay in all cases: inhibition of tumour cell growth, NCI panel, 48 h
[1] = system: OVCAR-5
[2] = system: NCI-H23
[3] = system: CAKI-1
[4] = system: Hs-578T
[5] = system: MDA-MB-435
[6] = system: PC-3
[7] = system: BT-549
[8] = system: MCF7
[9] = system: IGROV-1
[10] = system: DU-145
[11] = system: COLO 205
[12] = system: T47D
[13] = system: LOX IMVI
[14] = system: A549
[15] = system: OVCAR-3
[16] = system: NCI/ADR-RES
[17] = system: 786-0
[18] = system: MDA-N

Measured: GI50

O=C(O)CC(O)(C(=O)O)C(O)C(=O)O (centres undefined)
inactive: [1] > 1000 µM | [2] > 1000 µM | [3] > 1000 µM | [4] 119 µM | [5] 826 µM | [6] > 1000 µM | [7] > 1000 µM | [8] > 1000 µM | [9] > 1000 µM | [10] > 1000 µM | [11] > 1000 µM | [12] > 1000 µM | [13] 440 µM | [14] > 1000 µM | [15] > 1000 µM | [16] > 1000 µM | [17] > 1000 µM | [18] 617 µM

CCOC(=O)C(O)(NC(C)=O)C(F)(F)F (centres undefined)
inactive: [1] > 100 µM | [2] > 100 µM | [3] > 100 µM | [4] > 100 µM | [5] > 100 µM | [6] > 100 µM | [7] > 100 µM | [8] > 100 µM | [9] > 100 µM | [10] > 100 µM | [11] > 100 µM | [12] > 100 µM | [13] > 100 µM | [14] > 100 µM | [15] > 100 µM | [16] > 100 µM | [18] > 100 µM

Cc1nc2cc(/N=N/c3c(C)noc3C)ccc2[nH]1
inactive: [1] 28 µM | [2] 35.3 µM | [3] 18.9 µM | [4] 16.5 µM | [5] 21.3 µM | [6] 27.6 µM | [7] 22.2 µM | [8] 18.2 µM | [9] 12.6 µM | [10] 27.7 µM | [11] 15.1 µM | [12] 1.67 µM | [13] 16.6 µM | [14] 19.1 µM | [15] 18.1 µM | [16] 28.1 µM | [17] 28.1 µM | [18] 16.8 µM

CN(C)/C=C/c1nnnn1-c1ccc(I)cc1
inactive: [1] 23.7 µM | [2] 24.7 µM | [3] 22.3 µM | [4] 13.6 µM | [5] 20.5 µM | [6] 16.6 µM | [7] 22.8 µM | [8] 12 µM | [9] 15.6 µM | [10] 28.2 µM | [11] > 100 µM | [12] 9.44 µM | [13] 16.6 µM | [14] > 100 µM | [15] 23.6 µM | [16] 23.8 µM | [17] 35.1 µM | [18] 22.4 µM

O=C1OC(c2ccco2)=N/C1=C\c1ccc(Cl)c(Cl)c1
inactive: [1] > 100 µM | [2] > 100 µM | [3] 91 µM | [4] 36.1 µM | [5] > 100 µM | [6] > 100 µM | [7] > 100 µM | [8] 3.67 µM | [9] > 100 µM | [10] 98.6 µM | [11] > 100 µM | [12] 40.9 µM | [13] > 100 µM | [14] 62.1 µM | [15] 89.7 µM | [17] 38 µM | [18] > 100 µM

COC1OC(C(C)O)C2OC(C)(C)OC12 (centres undefined)
inactive: [1] > 100 µM | [2] > 100 µM | [3] > 100 µM | [4] > 100 µM | [5] > 100 µM | [6] > 100 µM | [7] > 100 µM | [8] > 100 µM | [9] > 100 µM | [10] > 100 µM | [11] > 100 µM | [12] > 100 µM | [13] > 100 µM | [14] > 100 µM | [15] > 100 µM | [16] > 100 µM | [17] > 100 µM | [18] > 100 µM

O=c1c2cccnc2[nH]c2ccc3cn[nH]c3c12
inactive: [1] > 10 µM | [2] > 10 µM | [3] 8.77 µM | [4] 6.21 µM | [5] > 10 µM | [6] > 10 µM | [7] > 10 µM | [8] 7.06 µM | [9] 3.33 µM | [10] > 10 µM | [11] > 10 µM | [12] > 10 µM | [13] 5.58 µM | [14] > 10 µM | [15] > 10 µM | [16] > 10 µM | [17] > 10 µM | [18] > 10 µM

CCOC(=O)c1sc2nc(SC)nc3c2c1NCN3C
inactive: [1] 36.1 µM | [2] 22 µM | [3] 22.5 µM | [4] 20.1 µM | [5] > 100 µM | [6] > 100 µM | [7] 35.7 µM | [9] 13 µM | [10] 70.1 µM | [11] > 100 µM | [12] 6.79 µM | [13] 36 µM | [14] 16.9 µM | [15] > 100 µM | [16] 19.6 µM | [17] 15.2 µM | [18] > 100 µM

COC(=O)C1=C(C(=O)OC)SC2(S1)C1=C(CCC1)SC(C(=O)OC)=C2C(=O)OC
inactive: [1] 19.4 µM | [2] 18.6 µM | [3] 5.87 µM | [4] 18.5 µM | [5] 12.9 µM | [6] 11.2 µM | [7] 16 µM | [8] 4.33 µM | [9] 12.9 µM | [10] 4.4 µM | [11] 13.8 µM | [12] 9.25 µM | [13] 3.33 µM | [14] 16.5 µM | [15] 12.2 µM | [16] 18.8 µM | [18] 14.5 µM

Cc1ccccc1CN1CC2=C(CCN(Cc3ccccc3)C2=O)N2CCN=C12
inactive: [1] 8.41 µM | [2] 4.62 µM | [3] 4.69 µM | [4] 14.4 µM | [5] 4.74 µM | [6] 3.58 µM | [7] 14.8 µM | [8] 4.86 µM | [9] > 100 µM | [10] 6.14 µM | [11] 1.86 µM | [12] 4.8 µM | [13] 3.49 µM | [14] 4.76 µM | [15] 4.48 µM | [16] 4.09 µM | [17] 8.89 µM

Cc1ccc(-c2n[nH]c(=O)n2N2C(=O)c3ccccc3C2=O)cc1
inactive: [1] > 100 µM | [2] > 100 µM | [3] > 100 µM | [4] > 100 µM | [5] > 100 µM | [6] > 100 µM | [7] > 100 µM | [8] > 100 µM | [9] > 100 µM | [10] > 100 µM | [12] 68.9 µM | [13] > 100 µM | [14] > 100 µM | [15] > 100 µM | [16] > 100 µM | [17] > 100 µM | [18] > 100 µM

Clc1ccc(Cc2nc3cc(Cl)c(Cl)cc3n2CC2CCCN3CCCCC23)cc1 (centres undefined)
inactive: [1] 12.8 µM | [3] 14.7 µM | [4] 9.79 µM | [5] 13 µM | [6] 9.04 µM | [7] 13.1 µM | [8] 10.7 µM | [9] 8.87 µM | [10] 12 µM | [11] 10.3 µM | [12] 18.1 µM | [13] 5.6 µM | [14] 13.2 µM | [15] 11 µM | [16] 12.5 µM | [17] 11 µM | [18] 11.7 µM

CCCC(C(=O)Nc1cccc2nc[nH]c12)C(=O)OCC (centres undefined)
inactive: [1] > 100 µM | [4] > 100 µM | [5] > 100 µM | [6] > 100 µM | [7] > 100 µM | [8] > 100 µM | [9] > 100 µM | [10] > 100 µM | [12] > 100 µM | [13] > 100 µM | [14] > 100 µM | [15] 67.8 µM | [16] 79.1 µM | [17] > 100 µM

CC1(C)OC2OC(C(=O)c3ccccc3)C3OC(C)(C)OC3C2O1 (centres undefined)
inactive: [1] > 100 µM | [2] > 100 µM | [3] > 100 µM | [4] > 100 µM | [5] > 100 µM | [6] > 100 µM | [7] > 100 µM | [8] > 100 µM | [9] > 100 µM | [10] > 100 µM | [11] > 100 µM | [12] > 100 µM | [13] > 100 µM | [15] > 100 µM | [16] > 100 µM | [17] > 100 µM | [18] > 100 µM

CCCCCCCCC/C=C1\CC(CO)(COC(=O)c2ccccc2)OC1=O (centres undefined)
inactive: [1] 15.9 µM | [2] 19.4 µM | [3] 19.4 µM | [4] 17.3 µM | [5] 16 µM | [6] 17.2 µM | [7] 21.8 µM | [8] 23.8 µM | [9] 32.1 µM | [10] 29.1 µM | [11] 16.6 µM | [12] 29.1 µM | [14] 20 µM | [15] 22.4 µM | [16] 22.6 µM | [17] 17.8 µM | [18] 16.6 µM

CC[C@@]12CCC(=S)N(CCSc3ccccc3)[C@@H]1c1c(n(S(=O)(=O)c3ccc(OC)cc3)c3ccccc13)CC2
inactive: [1] > 100 µM | [2] > 100 µM | [3] > 100 µM | [4] > 100 µM | [5] > 100 µM | [6] > 100 µM | [7] 48.1 µM | [8] > 100 µM | [9] > 100 µM | [10] > 100 µM | [11] > 100 µM | [12] > 100 µM | [13] > 100 µM | [14] > 100 µM | [15] > 100 µM | [16] > 100 µM | [17] 63.1 µM
